# Data published in patent EP4442727A1, “EPOXY RESIN COMPOSITIONS COMPRISING A LEWIS ACID” (priority 2023, dated 2024).
# Read-outs that look alike come from different tables or passages of the source.
# What was measured:
# [1] = type: physicochemical; settings: for Viscosity, Initial: Epoxy Composition 3 (Table 8) with the named Lewis Acid Additive, before storage; for 7d (increase in viscosity in %) / Viscosity, 7d / 15 d (increase in viscosity in %) / Viscosity, 15 d: Epoxy Composition 3 with the named Lewis Acid Additive; for 7d (increase in viscosity in %) / Viscosity, 7d: stored at 50°C for 7 days; for 15 d (increase in viscosity in %) / Viscosity, 15 d: stored at 50°C for 15 days
# Protocol: The A1 value gave the viscosity in Pascal seconds.
# The epoxy resin was put in a Speedmixer cup (Hauschild Engineering), the thixotrope and dicyandiamide were added, and the raw materials mixed at 3500 s^-1 for 5 min. The accelerator and the additive were then weighed into the resin formulation and the mixture again speedmixed at 3500 s^-1 for 15 s. Formulations were stored at 50 °C. The complex viscosity was determined after 7 d and 15 d. Table 9. Viscosity of adhesive formulations stored at 50°C for 7 and 15 days in Pa*s.
# [2] = cited from earlier work
Compound,"Viscosity, Initial [1] [Pa*s]",7d (increase in viscosity in %) [1] [%],"Viscosity, 7d [1] [Pa*s]",15 d (increase in viscosity in %) [1] [%],"Viscosity, 15 d [1] [Pa*s]",solubility in water ([2]; at 25°C) [g/100g],"solubility in water ([2]; at 25°C, printed in brackets beside the g/100g value) [g/L]",solubility in water ([2]; at 17.8°C)
"CCCCCCCCCCCCCCCCCC(=O)[O-].[Al+3].[OH-].[OH-] [AMS, Aluminum monostearate]",53,245,130,337,179,–,–,–
"[Cl-].[Cl-].[Zn+2] [ZnCl2, Zinc chloride]",54,140,76,292,158,432,4320,–
"[O]=[Zn] [ZnO, Zinc oxide]",48,233,112,17235,8273,–,–,solubility in water 0.0004% at 17.8 °C
